Tests used:
A1 or A2 receptors = assay: comparison of activity across the A1 and A2 adenosine receptor systems (discussion); assay type: biochemical; conditions: result in words
Experimental: Human platelet, rat pheochromocytoma (PC12) cell, rat fat cell and rat cerebral cortex membranes were prepared as described (4,5,6). Adenylate cyclase activity and binding of [^3H]PIA to cerebral cortex membranes were determined essentially as described (4,5,6).
KB values for the compounds were determined as described (4). […] EC50 and IC50 values for the agonists were obtained from the concentration-response curves by linear regression after logit-log transformation. KB values of the antagonists were calculated using the Schild equation KB = C/(CR-1), where C denotes the concentration of the competitor and CR the ratio of the EC50 and IC50 values in the presence and absence, respectively, of the competitor. IC50 of the compounds for inhibition of [^3H]PIA binding to cerebral cortex membranes were transformed into Ki values as described (6).

A1 adenosine receptor = molecular target: T1, A1 adenosine receptor (Cavia porcellus, UniProt P47745); assay: antagonism of adenosine agonists' reduction in force of contraction of guinea pig atrium; assay type: cell-based; conditions: guinea pig atria, result in words
T1 construct: The left atria from male guinea pigs were isolated; from tissue; host or cells: isolated guinea pig left atrium
T1 sequence (P47745 1-326): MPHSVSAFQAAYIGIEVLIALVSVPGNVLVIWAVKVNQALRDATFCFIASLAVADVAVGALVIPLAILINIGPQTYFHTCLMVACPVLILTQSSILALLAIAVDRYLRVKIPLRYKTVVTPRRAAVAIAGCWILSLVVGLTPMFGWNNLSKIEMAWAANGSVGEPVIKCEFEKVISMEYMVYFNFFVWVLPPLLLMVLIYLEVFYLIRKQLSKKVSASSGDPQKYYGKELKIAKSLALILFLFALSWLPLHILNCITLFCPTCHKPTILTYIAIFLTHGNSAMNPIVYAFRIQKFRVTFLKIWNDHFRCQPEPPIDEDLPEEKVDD
Experimental: The left atria from male guinea pigs were isolated, suspended between two punctate electrodes, and placed in a 20 ml organ bath that contained Krebs-Hensileit solution that was continuously gassed with 95% O2 + 5% CO2 and maintained at 31°C. The resting tension was one gram. Theatria were stimulated electrically at 1 hz, 1 ms duration pulses at supramaximal voltage. The force of contraction was recorded isometrically.
(§1) The ability of the compounds to antagonize the effects of agonists was analyzed using modified Schild plots.

[1] = tested on: heart rate and blood pressure; assay: in vivo heart rate and blood pressure in anesthetized rats after adenosine or NECA; conditions: urethan-anesthetized rats, prior administration
Excerpt: Drug injections were made intravenously through a jugular cannula.

A2-adenosine receptors = assay: antagonism of adenosine agonists' decrease in contractile tone of guinea pig taenia caecum; assay type: cell-based; conditions: result in words
Experimental: The tissues were suspended in a 20 ml organ bath containing de Jalon's solution that was gassed with 95% O2 + 5% CO2 and maintained at 31°C. The resting tension was 1.5 g. The contractile response was measured isotonically.
as §1

SMILES	selectivity for A1 or A2 receptors (A1 or A2 receptors)	antagonism at adenosine receptors in the atria (A1 adenosine receptor)	antagonism at adenosine receptors in the atria (A1 adenosine receptor; listed as Ex. 22)	NECA-induced decrease in blood pressure [1]	effects of NECA on the heart [1]	antagonism of the effects of adenosine agonists in relaxing the taenia caecum (A2-adenosine receptors)
COc1cc(CCNc2ncnc3c2ncn3C)cc(OC)c1OC	selectivity for A2 receptors					
Cn1cnc2c(N[C@H]3C[C@H]4CC[C@@H]3C4)ncnc21 (relative stereo) [Example 22, N^6-(endonorbornyl)-9-methyladenine]		competitive antagonists	the most potent antagonist	minimally affecting	attenuated	did not competitively antagonize
